Results published in paper PMC7824897, “Selection of the First ^99mTc-Labelled Somatostatin Receptor Subtype 2 Antagonist for Clinical Translation—Preclinical Assessment of Two Optimized Candidates” (Pharmaceuticals, 2020).
Blank lines part the entries; values can stand above or below the molecule they belong to. Bridges are numbered along the chain shown (N, C = ends). [ ]: non-standard residue; d: D form. The star is where a group is joined. N4 = 6-carboxy-1,4,8,11-tetraazaundecane chelator, NCCNCC(CNCCN)C(=O)*; dPhe(4-NHCONH2) = NC(=O)Nc1ccc(C[C@@H](N)C(=O)O)cc1; Phe(4-Cl) = N[C@@H](Cc1ccc(Cl)cc1)C(=O)O

Columns and labels:
[1] = format: physicochemical; details: pH 7.4
Experimental: Determination of the distribution coefficient (log D) was performed by the shake-flask method in 1:1 mixture of octanol/Phosphate buffered saline (PBS). Then, 50 µL of [^99mTc]Tc-TECANT-1 or [^99mTc]Tc-TECANT-2 solution was diluted up to 500 µL with PBS (pH 7.4; 8 mM phosphate). Next, 20 µL of this solution was added to six eppendorf tubes, each containing 500 µL octanol and 480 µL PBS. The samples were vortexed for 15 min at 1400 rpm followed by centrifugation for 2 min at 4500 rpm. Aliquots of 100 µL from each phase were taken and measured in a γ-counter. The log D was calculated as the average of the logarithmic values (n = 3, six technical replicates) of the ratio between the radioactivity in the octanol and the PBS phase.

[2] = molecular target: T1, HEK-SST2 cells (human SST2 receptor) (Homo sapiens, UniProt P30874); assay: Internalization and cell-surface binding in HEK-SST2 cells; format: cell-based; details: 37 °C
T1 construct: expressed in transfected cells; host or cells: HEK293 (HEK-SST2), provided by Prof; Stefan Schulz, Jena University Hospital

[3] = molecular target: T1, HEK-SST2 cells (human SST2 receptor); assay: Dissociation of cell-surface bound radiotracer with or without competitor; format: cell-based
[4] = design: species or system human
From the text: To account for various possible locations of the tumour, we used two S-values. One was the value for the liver and is representative for the liver lesions. Other was the “average abdominal S-value”, which was the average S-value for the following organs: stomach, liver, gallbladder, spleen, pancreas, small intestine, kidneys, large intestine, and adrenal glands. Estimated dose to various organs, average total body dose and effective dose are summarized in Table 3 for both radiotracers and two typical tumour locations.
Dosimetric calculations were based on the biodistribution of [^99mTc]Tc-TECANT-1 and [^99mTc]Tc-TECANT-2 (Table 3). […] Percent of injected activity per organ in a human model was evaluated according to the animal data extrapolation model:(2) (%IA/organ)human=[(%IA/g)mouse×Mmouse(g)]×(m(g)/M(kg))human
Here m is the organ mass and M is the total body weight of mouse or human. Average total weight of the mouse was measured, while human phantom has the total weight of 73 kg. The %IA/g and %IA/organ is the percentage of the injected activity concentration (i.e., per gram of tissue) and per organ, respectively. For the tumour, we assumed that the percent of injected activity uptake into the tumour is the same for mouse and human.
Subsequently, percentage of the injected activity per organ was folded with the decay curve of ^99mTc and interpolated with the exponential function. The interpolation function was used to estimate initial %ID/organ and the time-integrated activity concentration (TIAC). Absorbed dose per injected activity for various organs was calculated with the TIAC factors and S-values for a standard person from the OpenDose project. Effective dose was evaluated according to the ICRP 103 recommendations.
We also assumed that the remaining activity from the organs and tumour ends up in the bladder.

in vivo = details: female, mouse, 20 pmol, total radioactivity
[5] = molecular target: T2, T7-epitope tagged human SST2 receptor (somatostatin receptor subtype 2) (human, UniProt P30874 1-369); assay: radioligand binding; competition on 5 x 10^5 HEK-SST2 cells in 96-well filter plates; radioligand [^177Lu]Lu-DOTA-TATE (1 nM); competitor 0.004 to 4000 nM; 2 h at 4 °C; TRIS buffer; apparent IC50; details: one partner purified
T2 construct: somatostatin receptor subtype 2 (SST2), human, expressed in HEK293 cells; also called HEK-SST2 (the cells that express it); source: HEK293 cell line expressing it (HEK-SST2), provided by Professor Stefan Schulz; on intact cells

[6] = molecular target: T2, T7-epitope tagged human SST2 receptor …; assay: radioligand binding; dissociation with competitor: as without, but medium with 2.5 µM of the respective unlabelled TECANT analogue; details: one partner purified
[7] = molecular target: T2, T7-epitope tagged human SST2 receptor …; assay: radioligand binding; dissociation without competitor: radiotracer 0.25 nM bound to HEK-SST2 cells for 2 h at 4 °C, washed, then medium at 37 °C replaced at 10, 20, 30, 60, 120 and 240 min; cell-associated radiotracer left; details: one partner purified
[8] = athymic nude-Foxn1^nu/Foxn1^+, Biodistribution Heart
[9] = athymic nude-Foxn1^nu/Foxn1^+, Biodistribution Liver
[10] = athymic nude-Foxn1^nu/Foxn1^+, Biodistribution Lung
[11] = athymic nude-Foxn1^nu/Foxn1^+, Biodistribution Pancreas
[12] = athymic nude-Foxn1^nu/Foxn1^+, Biodistribution Spleen
[13] = athymic nude-Foxn1nu/Foxn1+, Biodistribution Adrenals
[14] = athymic nude-Foxn1nu/Foxn1+, Biodistribution Blood
[15] = athymic nude-Foxn1nu/Foxn1+, Biodistribution Bone
[16] = athymic nude-Foxn1nu/Foxn1+, Biodistribution HEK-SST2 (+) tumour uptake
[17] = athymic nude-Foxn1nu/Foxn1+, Biodistribution Intestine
[18] = athymic nude-Foxn1nu/Foxn1+, Biodistribution Kidneys
[19] = athymic nude-Foxn1nu/Foxn1+, Biodistribution Muscle
[20] = athymic nude-Foxn1nu/Foxn1+, Biodistribution Pituitary
[21] = athymic nude-Foxn1nu/Foxn1+, Biodistribution Stomach

T1 sequence (P30874 whole entry): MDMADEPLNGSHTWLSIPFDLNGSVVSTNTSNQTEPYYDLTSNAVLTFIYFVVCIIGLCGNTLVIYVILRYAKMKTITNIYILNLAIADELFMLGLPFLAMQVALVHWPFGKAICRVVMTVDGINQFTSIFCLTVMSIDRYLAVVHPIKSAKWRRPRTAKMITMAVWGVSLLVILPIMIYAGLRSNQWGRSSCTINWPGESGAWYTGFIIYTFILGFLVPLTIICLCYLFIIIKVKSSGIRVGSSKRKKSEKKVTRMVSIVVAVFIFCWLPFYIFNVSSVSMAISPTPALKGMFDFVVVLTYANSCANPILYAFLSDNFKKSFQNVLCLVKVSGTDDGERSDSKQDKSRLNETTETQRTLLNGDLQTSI
T2 sequence (P30874 whole entry): as above

Molecule: C[C@@H](O)[C@@H]1NC(=O)[C@H](CCCCN)NC(=O)[C@@H](Cc2c[nH]c3ccccc23)NC(=O)[C@H](Cc2ccc(O)cc2)NC(=O)[C@H](NC(=O)[C@H](Cc2ccc(Cl)cc2)NC(=O)C(CNCCN)CNCCN)CSSC[C@@H](C(=O)N[C@H](Cc2ccc(O)cc2)C(N)=O)NC1=O [[^99mTc]Tc-TECANT-2, metal not drawn]
logD [1]: -1.63 ± 0.16 | internalization (internalized fraction) ([2]; 30 min): 4.4 ± 0.5% | internalization (internalized fraction) ([2]; 4 h): 11.7 ± 1.4% | cell surface binding ([2]; 4 h, % of total radioactivity added): 36.9 ± 8.5% | estimated dissociation half-life ([3]; absence of competitor): 40.3 min | total binding remaining (dissociation assay) ([3]; after 4 h, 37 °C, absence of competitor): 27.2 ± 6.3% | estimated dissociation half-life ([3]; presence of competitor): 7.5 min | bound fraction still remaining in the cells ([3]; presence of excess of the competitor, 37 °C): 1.1 ± 0.1% | Average total body dose [4]: 3.3 μGy/MBq | Dose Bone [4]: 4.0 μGy/MBq | Dose Muscle [4]: 2.6 μGy/MBq | Dose Red marrow [4]: 3.4 μGy/MBq | Dose Small intestine wall [4]: 1.9 μGy/MBq | biological half-life of clearance of remaining activity (rest of the body) to the bladder [4]: 13.3 h | effective dose [4]: 4.3 mSv | tissue uptake at 1 h (in vivo; [8]): 1.64 ± 0.6 %ID/g | tissue uptake at 4 h (in vivo; [8]): 0.26 ± 0.05 %ID/g | tissue uptake at 24 h (in vivo; [8]): 0.05 ± 0.01 %ID/g | tissue uptake at 1 h (in vivo; [9]): 5.38 ± 1.36 %ID/g | tissue uptake at 4 h (in vivo; [9]): 3.72 ± 0.92 %ID/g | tissue uptake at 24 h (in vivo; [9]): 1.07 ± 0.24 %ID/g | tissue uptake at 1 h (in vivo; [10]): 17 ± 5.75 %ID/g | tissue uptake at 4 h (in vivo; [10]): 2.52 ± 0.53 %ID/g | tissue uptake at 24 h (in vivo; [10]): 0.3 ± 0.05 %ID/g | tissue uptake at 1 h (in vivo; [11]): 16.4 ± 4.53 %ID/g | tissue uptake at 4 h (in vivo; [11]): 1.96 ± 0.58 %ID/g | tissue uptake at 24 h (in vivo; [11]): 0.12 ± 0.05 %ID/g | tissue uptake at 1 h (in vivo; [12]): 1.61 ± 0.46 %ID/g | tissue uptake at 4 h (in vivo; [12]): 0.55 ± 0.15 %ID/g | tissue uptake at 24 h (in vivo; [12]): 0.24 ± 0.06 %ID/g | tissue uptake at 1 h (in vivo; [13]): 5.14 ± 1.79 %ID/g | tissue uptake at 4 h (in vivo; [13]): 1.25 ± 0.33 %ID/g | tissue uptake at 24 h (in vivo; [13]): 0.73 ± 0.2 %ID/g | tissue uptake at 1 h (in vivo; [14]): 1.8 ± 0.44 %ID/g | tissue uptake at 4 h (in vivo; [14]): 0.23 ± 0.05 %ID/g | tissue uptake at 24 h (in vivo; [14]): 0.03 ± 0.01 %ID/g | tissue uptake at 1 h (in vivo; [15]): 1.67 ± 0.94 %ID/g | tissue uptake at 4 h (in vivo; [15]): 0.41 ± 0.14 %ID/g | tissue uptake at 24 h (in vivo; [15]): 0.2 ± 0.19 %ID/g | tissue uptake at 1 h (in vivo; [16]): 19.1 ± 4.47 %ID/g | tissue uptake at 4 h (in vivo; [16]): 28.4 ± 4.84 %ID/g | tissue uptake at 24 h (in vivo; [16]): 11 ± 4.69 %ID/g | tissue uptake at 4 h (in vivo; athymic nude-Foxn1nu/Foxn1+, Biodistribution HEK-SST2 (−) tumour uptake): 0.38 ± 0.13 %ID/g | tissue uptake at 1 h (in vivo; [17]): 4.05 ± 1.12 %ID/g | tissue uptake at 4 h (in vivo; [17]): 0.86 ± 0.4 %ID/g | tissue uptake at 24 h (in vivo; [17]): 0.31 ± 0.17 %ID/g | tissue uptake at 1 h (in vivo; [18]): 43.6 ± 11.4 %ID/g | tissue uptake at 4 h (in vivo; [18]): 25.9 ± 5.23 %ID/g | tissue uptake at 24 h (in vivo; [18]): 3.42 ± 1.44 %ID/g | tissue uptake at 1 h (in vivo; [19]): 0.69 ± 0.22 %ID/g | tissue uptake at 4 h (in vivo; [19]): 0.15 ± 0.04 %ID/g | tissue uptake at 24 h (in vivo; [19]): 0.06 ± 0.03 %ID/g | tissue uptake at 1 h (in vivo; [20]): 4.74 ± 1.5 %ID/g | tissue uptake at 4 h (in vivo; [20]): 1.21 ± 0.86 %ID/g | tissue uptake at 24 h (in vivo; [20]): 2.12 ± 1.36 %ID/g | tissue uptake at 1 h (in vivo; [21]): 14.6 ± 4.89 %ID/g | tissue uptake at 4 h (in vivo; [21]): 2.17 ± 0.39 %ID/g | tissue uptake at 24 h (in vivo; [21]): 0.45 ± 0.08 %ID/g

B1: TECANT-1 (N4-p-Cl-Phe-cyclo(D-Cys-Tyr-D-Aph(Cbm)-Lys-Thr-Cys)-D-Tyr-NH2) (peptide)
peptide: N4-[Phe(4-Cl)][dC]Y[dPhe(4-NHCONH2)]KTC[dY]-NH2
modifications: disulfide 2-7
SMILES: C[C@@H](O)[C@@H]1NC(=O)[C@H](CCCCN)NC(=O)[C@@H](Cc2ccc(NC(N)=O)cc2)NC(=O)[C@H](Cc2ccc(O)cc2)NC(=O)[C@H](NC(=O)[C@H](Cc2ccc(Cl)cc2)NC(=O)C(CNCCN)CNCCN)CSSC[C@@H](C(=O)N[C@H](Cc2ccc(O)cc2)C(N)=O)NC1=O
notes: printed in three-letter code: N4-p-Cl-Phe-cyclo(D-Cys-Tyr-D-Aph(Cbm)-Lys-Thr-Cys)-D-Tyr-NH2; F at 1 stands for p-Cl-Phe and F at 4 for D-Aph(Cbm), both phenylalanine derivatives; SST2 antagonist based on LM3; non-metallated peptide conjugate; also called N4-LM3; source: synthetic peptide, custom made by piChem
IC50 [5]: 4.14 ± 0.83 nM

B3: [^99mTc]Tc-TECANT-2 (peptide)
peptide: N4-[Phe(4-Cl)][dC]Y[dW]KTC[dY]-NH2
modifications: disulfide 2-7; also: N4 chelator holds 99mTc (dioxo-99mTc(V) complex)
notes: as TECANT-2: N4-p-Cl-Phe-cyclo(D-Cys-Tyr-D-Trp-Lys-Thr-Cys)-D-Tyr-NH2; F at 1 stands for p-Cl-Phe; also called ^99mTc-N4-SS01; source: synthetic peptide (piChem), labelled with ^99mTc, used without further purification
estimated half-life of dissociation [6]: 7.5 min | estimated half-life of dissociation [7]: 40.3 min

Continued, values first:

IC50 [5]: 4.47 ± 0.89 nM
B2: ^natRe-TECANT-2 (peptide)
peptide: N4-[Phe(4-Cl)][dC]Y[dW]KTC[dY]-NH2
modifications: disulfide 2-7; also: N4 chelator holds natural rhenium
notes: as TECANT-2: N4-p-Cl-Phe-cyclo(D-Cys-Tyr-D-Trp-Lys-Thr-Cys)-D-Tyr-NH2; F at 1 stands for p-Cl-Phe; surrogate of the Tc complex; also called [^natRe]Re-TECANT-2; Re-complex of TECANT-2; source: synthetic peptide (piChem), Re complex made with tetrabutylammonium-tetrachloro-oxo-rhenate (V)

IC50 [5]: 5.01 ± 0.93 nM
B4: ^natRe-TECANT-1 (peptide)
peptide: N4-[Phe(4-Cl)][dC]Y[dPhe(4-NHCONH2)]KTC[dY]-NH2
modifications: disulfide 2-7; also: N4 chelator holds natural rhenium
notes: as TECANT-1: N4-p-Cl-Phe-cyclo(D-Cys-Tyr-D-Aph(Cbm)-Lys-Thr-Cys)-D-Tyr-NH2; F at 1 stands for p-Cl-Phe and F at 4 for D-Aph(Cbm); surrogate of the Tc complex; also called [^natRe]Re-TECANT-1; Re-complex of TECANT-1; source: synthetic peptide (piChem), Re complex made with tetrabutylammonium-tetrachloro-oxo-rhenate (V)

estimated half-life of dissociation [6]: 19 min | estimated half-life of dissociation [7]: 98 min
B5: [^99mTc]Tc-TECANT-1 (peptide)
peptide: N4-[Phe(4-Cl)][dC]Y[dPhe(4-NHCONH2)]KTC[dY]-NH2
modifications: disulfide 2-7; also: N4 chelator holds 99mTc (dioxo-99mTc(V) complex)
notes: as TECANT-1: N4-p-Cl-Phe-cyclo(D-Cys-Tyr-D-Aph(Cbm)-Lys-Thr-Cys)-D-Tyr-NH2; F at 1 stands for p-Cl-Phe and F at 4 for D-Aph(Cbm); source: synthetic peptide (piChem), labelled with ^99mTc, used without further purification
